Where a name gives a salt, the structure may show the parent alone.
Columns and labels:
[1] = system: SB.mhdgc-1; assay: viability at highest tested concentration (MAXR) relative to DMSO; higher = less cytotoxic; details: SB.mhdgc-1 (hereditary c.1380delA CDH1 gastric cancer)
Procedure, shortened: (§1)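 In 1536-well plates, each well held 500 gastric cancer cells of hereditary or sporadic patient origin in 5 μL medium. Compound in DMSO (23 nL, pintool) was added at 11 concentrations spaced threefold apart, and the top concentration was noted per compound. Luminescence was read on a ViewLux after a 48 h incubation and a 30 min room-temperature treatment with CellTiter-Glo. Figures give viability normalised to DMSO, either at the highest concentration or as trapezoidal area under the curve.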

[2] = system: SB.msgc-1; assay: as above; details: SB.msgc-1 (sporadic gastric cancer)
Procedure, shortened: as §1

[3] = system: SB.mhdgc-1; assay: area under the dose-response curve of % viability (trapezoidal, 11 doses) (% viability x log10 concentration); higher = less cytotoxic; details: SB.mhdgc-1 (hereditary c.1380delA CDH1 gastric cancer)
Procedure, shortened: as §1

[4] = system: SB.msgc-1; assay: as above; details: SB.msgc-1 (sporadic gastric cancer)
Procedure, shortened: as §1

Compound | viability [1] | viability [2] | area under the dose-response curve [3] | area under the dose-response curve [4]
CNc1nc(-c2ccc3c(N)n[nH]c3c2)cc(N2C[C@@H](C(=O)NC3CCCCC3)CC[C@H]2C)n1 (top concentration 46.0829 µM) | 8.83% | 14.5% | 376 | 423
COC(=O)N[C@H](C(=O)N1CCC[C@H]1c1ncc(-c2ccc(-c3ccc(-c4cnc([C@@H]5CCCN5C(=O)[C@@H](NC(=O)OC)C(C)C)[nH]4)cc3)cc2)[nH]1)C(C)C [Daclatasvir dihydrochloride] (top concentration 46.0829 µM) | 3.05% | 4.16% | 488 | 541
CC[C@H]1OC(=O)[C@H](C)C(=O)[C@H](C)[C@@H](O[C@H]2O[C@H](C)C[C@H](N(C)C)[C@H]2O)[C@](C)(OC)C[C@@H](C)C(=O)[C@H](C)[C@H]2N(CCCCn3cnc(-c4cccnc4)c3)C(=O)O[C@]12C [Telithromycin] (top concentration 46.0829 µM) | 82.1% | 50.3% | 503 | 528
Cc1ccnc2c1NC(=O)c1cccnc1N2C1CC1 [Nevirapine] (top concentration 46.0829 µM) | 2.97% | 7.46% | 497 | 579
CC(C)NCC(O)COc1ccc(COCCOC(C)C)cc1 (configuration not stated) [Bisoprolol] (top concentration 46.0829 µM) | 107% | 119% | 508 | 555
Cc1ccc(C(N)=O)cc1Nc1nccc(-c2cn(C(C)C)c3cnccc23)n1 (top concentration 46.0829 µM) | 55.7% | 58.3% | 441 | 456
Cn1c2ccccc2c2c3c(c4c5ccccc5n(CCC#N)c4c21)CNC3=O [G?-6976] (top concentration 46.0829 µM) | 7.79% | 17.6% | 341 | 405
CCCCCNC(=O)N1CCC(CN(Cc2ccc(Cl)cc2)Cc2ccc([N+](=O)[O-])s2)C1 (configuration not stated) [SR9011] (top concentration 46.0829 µM) | 16.7% | 39% | 518 | 486
COC(=O)Nc1nc2cc(C(=O)c3cccs3)ccc2[nH]1 [Nocodazole] (top concentration 46.0829 µM) | 54.5% | 40.9% | 296 | 284
Cc1cccc(C#Cc2ccccc2)n1 [MPEP] (top concentration 46.0829 µM) | 74.4% | 96.5% | 557 | 607
CC1=C(/C=C/C(C)=C/C=C/C(C)=C/C=C/C=C(C)/C=C/C=C(C)/C=C/C2=C(C)CCCC2(C)C)C(C)(C)CCC1 [beta-Carotene] (top concentration 46.0829 µM) | 49.5% | 7.48% | 516 | 463
S=C(NCc1ccc2c(c1)OCO2)N1CCN(c2ncnc3c2oc2ccccc23)CC1 [Amuvatinib] (top concentration 92.1659 µM) | 28% | 47.9% | 472 | 436
C[C@@H](O)[C@@H]1[C@H]2[C@@H](C)\C(=C(/N2C1=O)C(=O)OCOC(=O)C(C)(C)C)SC3CN(C3)/C4=N/CCS4 [Tebipenem pivoxil] (top concentration 46.0829 µM) | 115% | 91.9% | 530 | 529
C[N]1C2=C(SC(=C2)[S+](C)[O-])C\3=C1C(=O)N(CC4=CC(=CC=C4)N)\N=C3 (configuration not stated) (top concentration 46.0829 µM) | 81.9% | 91% | 512 | 535
Cn1c(Nc2ccc(C(F)(F)F)cc2)nc2cc(Oc3ccnc(-c4nc(C(F)(F)F)c[nH]4)c3)ccc21 [CHIR-265] (top concentration 46.0829 µM) | 57.8% | 48.9% | 464 | 454
COC1(C[S+]([O-])c2ccccc2)CCN(CCc2c[nH]c3ccc(F)cc23)CC1 (configuration not stated) (top concentration 46.0829 µM) | 32.6% | 81.8% | 524 | 521
CO[C@@H]1[C@@H](OC(N)=O)[C@@H](O)[C@H](OC2=CC=C3\C(=C(NC(=O)C4=CC=C([O-])C(=C4)CC=C(C)C)/C(=O)OC3=C2C)O)OC1(C)C [Novobiocin sodium] (top concentration 46.0829 µM) | 115% | 99.6% | 540 | 507
CCn1c(-c2nonc2N)nc2c(C#CC(C)(C)O)ncc(OC[C@H]3CCCNC3)c21 (top concentration 46.0829 µM) | 20% | 58.6% | 351 | 430
COC(=O)/C=C/C(=O)OC [Dimethyl fumarate] (top concentration 46.0829 µM) | 20.6% | 66.6% | 302 | 416
COc1cc(N2CCN(C)CC2)ccc1Nc1nc(N)c(C(=O)c2c(Cl)cccc2Cl)s1 (top concentration 46.0829 µM) | 35.6% | 53.8% | 457 | 478
COC1=CC=C2[N](CCCN(C)C)C=C(C2=C1)C/3=C(/C(=O)NC3=O)C4=C[NH]C5=C4C=CC=C5 [G?-6983] (top concentration 46.0829 µM) | 67.4% | 60.8% | 354 | 496
C[C@H]1[C@@H](C(=O)C[C@H]2O[C@@H]3O[C@]4(C)CC[C@H]5[C@H](C)CC[C@@H]([C@H]2C)[C@@]35OO4)O[C@@H]2O[C@]3(C)CC[C@H]4[C@H](C)CC[C@@H]1[C@@]24OO3 [BTM-2C-dimer ketone] (top concentration 46.0829 µM) | 50.9% | 69% | 455 | 497

Compound | viability [1] | viability [2] | area under the dose-response curve [3] | area under the dose-response curve [4]
CC(=O)O[C@@]12CO[C@@H]1C[C@H](O)[C@]3(C)[C@@H]2[C@H](OC(=O)C4=CC=CC=C4)[C@]5(O)C[C@H](OC(=O)C(O)[C@@H](NC(=O)OC(C)(C)C)C6=CC=CC=C6)C(=C(/[C@@H](O)C3=O)C5(C)C)/C (some centres not stated) [Docetaxel] (top concentration 46.0829 µM) | 45.6% | 48.6% | 312 | 245
CCC1(C)CC(=O)NC1=O (configuration not stated) [Ethosuximide] (top concentration 46.0829 µM) | 100% | 111% | 499 | 537
N#CC(c1ccnc(NCCc2cccnc2)n1)c1nc2ccccc2s1 (configuration not stated) [JNK Inhibitor V] (top concentration 46.0829 µM) | 47.8% | 38.6% | 478 | 466
CO[C@H]1/C=C/O[C@@]2(C)Oc3c(C)c(O)c4c(O)c(c5c(nc6cc(C)ccn65)c4c3C2=O)NC(=O)/C(C)=C\C=C\[C@H](C)[C@H](O)[C@@H](C)[C@@H](O)[C@@H](C)[C@H](OC(C)=O)[C@@H]1C [Rifaximin] (top concentration 46.0829 µM) | 79.1% | 79.9% | 532 | 516
O=C(NCC1CCCCN1)c1cc(OCC(F)(F)F)ccc1OCC(F)(F)F (configuration not stated) [Flecainide] (top concentration 46.0829 µM) | 3.79% | 7.7% | 456 | 499
CC(Cc1ccc(O)c(O)c1)(NN)C(=O)O (configuration not stated) [Carbidopa] (top concentration 46.0829 µM) | 109% | 74.1% | 622 | 570
S=P(N1CC1)(N1CC1)N1CC1 [ThioTEPA] (top concentration 46.0829 µM) | 47.4% | 75% | 519 | 514
O=C(O)CCNc1cc(N2CCc3ccccc3CC2)nc(-c2ccccn2)n1 [GSK-J1] (top concentration 46.0829 µM) | 128% | 88.2% | 562 | 520
COCCCOc1cc(C[C@@H](C[C@H](N)[C@@H](O)C[C@H](C(=O)NCC(C)(C)C(N)=O)C(C)C)C(C)C)ccc1OC [Aliskiren hemifumarate] (top concentration 46.0829 µM) | 121% | 125% | 575 | 581
C[N]1C=NC=C1[C@@](N)(C2=CC=C(Cl)C=C2)C3=CC=C4N(C)C(=O)\C=C(\C5=CC=CC(=C5)Cl)C4=C3 [Tipifarnib] (top concentration 46.0829 µM) | 4.28% | 24.2% | 485 | 434
CC[S+](=O)([O-])N1CC(CC#N)(n2cc(-c3ncnc4[nH]ccc34)cn2)C1 [Baricitinib] (top concentration 46.0829 µM) | 41.1% | 70.6% | 470 | 523
Nc1nc(-c2nn(Cc3ccccc3F)c3ncccc23)nc(N)c1N1CCOCC1 [BAY-41-8543] (top concentration 46.0829 µM) | 82.3% | 73% | 568 | 503
N#C[C@H](O[C@@H]1O[C@H](CO[C@@H]2O[C@H](CO)[C@@H](O)[C@H](O)[C@H]2O)[C@@H](O)[C@H](O)[C@H]1O)c1ccccc1 [Amygdalin] (top concentration 46.0829 µM) | 3.58% | 5.78% | 467 | 380
COc1ccc(CC2NCCc3cc(OC)c(OC)cc32)cc1OC (configuration not stated) [Tetrahydropapaverine] (top concentration 46.0829 µM) | 51.3% | 56.7% | 437 | 429
COC1=CC(=C2C(=O)N(COC/3=C/C(=O)N4\C=C/C=C(OCCN5CCCCC5)\C4=N3)[S+]([O-])(=O)C2=C1)C(C)C (top concentration 46.0829 µM) | 2.92% | 39.7% | 475 | 478
Cc1nc2c([nH]1)-c1ccccc1N(C(=O)c1ccc(NC(=O)c3ccccc3-c3ccccc3)cc1)CC2 [Conivaptan hydrochloride] (top concentration 46.0829 µM) | 77.5% | 70.4% | 503 | 515
N#CCNC(=O)c1ccc(-c2ccnc(Nc3ccc(N4CCOCC4)cc3)n2)cc1 [CYT387] (top concentration 46.0829 µM) | 47.3% | 26.9% | 534 | 474
NC(=O)c1cccc(-c2cccc(OC(=O)NC3CCCCC3)c2)c1 [KDS-4103] (top concentration 46.0829 µM) | 51.6% | 73.9% | 463 | 544
CCN1\C=C(\C(O)=O)C(=O)C2=C1C=C(N3CCNCC3)C(=C2)F [Norfloxacin] (top concentration 46.0829 µM) | 146% | 112% | 495 | 535
N#C/N=C(\NCCCCCCOc1ccc(Cl)cc1)Nc1ccncc1 [GMX-1778] (top concentration 46.0829 µM) | 30.5% | 38.8% | 260 | 390
CC(Oc1ccc(O)cc1)(P(=O)(O)O)P(=O)(O)O (top concentration 46.0829 µM) | 95.7% | 93.4% | 470 | 522

Reference: the supplement of paper PMC5412046
